Measured values taken from patent US20160243176A1, “EXTRACTS FROM PLANTS OF THE MORINGACEAE FAMILY AND METHODS OF MAKING” (RUTGERS, THE STATE UNIVERSITY OF NEW JERSEY, priority 2013, published 2016).

Key:
[1] = test system: H4IIE rat hepatoma cells; assay: In vitro gluconeogenesis: glucose production; format: cell-based; settings: HII4E liver cells; for IC50: range of 5 concentrations; for activity on glucose production relative to SF: same concentrations
Experimental: H4IIE rat hepatoma cells (CRL-1548, American Type Culture Collection, Manassas, Va.) were assayed for glucose production as previously described (21). Cell viability was measured by the 3-(4,5-Dimethyl-2-thiazolyl)-2,5-diphenyltetrazolium bromide (MTT; TCI, Portland, Oreg.) assay (22). RNA extraction, cDNA synthesis and qPCR for gene expression of PEPCK and G6P were performed as described above.

[2] = Compound stability of MICs in moringa extract stored at 37° C.; format: physicochemical; settings: 37° C. for 30 days, compared to day 0
[3] = test system: NO formation; settings: Cheenpracha et al., 2010; read-out: NO inhibition IC50; cited from earlier work
[4] = test system: RAW 264.7 macrophages; assay: MTT-based cell viability assay; settings: concentrations tested in anti-inflammatory assays
Experimental: The effect of the treatments on cell viability was measured using MTT [3-(4,5-dimethyl-2-thiazolyl)-2,5-diphenyltetrazolium bromide] (TCI, Portland, Oreg.) (Mosmann, 1983). MTT (5 mg/mL) was dissolved in PBS (Cayman Chemical, Ann Arbor, Mich.), filtered through a 0.22 μm membrane and added to treated cells during the last 3-4 hours of treatment. Media were carefully aspirated and cells were dissolved in DMSO. The absorbance was read at 570 nm.

[5] = test system: iNOS; assay: LPS-induced iNOS gene expression in RAW 264.7 macrophages; format: cell-based; settings: 1 and 5 μM; RAW 264.7, LPS
Experimental: (§1) All reagents were supplied from Sigma-Aldrich Co. (St. Louis, Mo.) unless otherwise noted. RAW 264.7 macrophages (ATCC TIB-71) were maintained in Dulbecco's modified Eagle's medium (Caisson, North Logan, Utah) supplemented with 100 U/mL penicillin, 100 μg/mL streptomycin, and 10% fetal bovine serum. Cells were incubated at 37° C. in a 5% CO2 humidified atmosphere and subcultured by cell scraping. For experiments, RAW cells were plated at a density of 4×10^5 cells/mL in 24-well plates. Cells were incubated overnight (18 h), washed with warm 37° C. PBS, and medium was replaced fresh DMEM medium. […] Lipopolysaccharide (1 μg/mL) was added after 2 h incubation with treatments to elicit inflammatory responses. Cells were treated in duplicate or triplicate. After an additional 6 h incubation period, media were collected and cells were washed with PBS prior to collection in TRIzol® Reagent (Ambion, Life Technologies). […]
(§2) Total RNA was extracted from cells according to manufacturer's specifications. […] RNA integrity was evaluated by running about 1 μg of RNA on a 1% agarose gel. […]
(§3) Quantitative PCR amplifications were performed on an ABI 7300 Real-Time PCR System (Applied Biosystems) with the following thermal cycler profile: 2 minutes, 50° C.; 10 minutes, 95° C.; 15 seconds, 95° C.; 1 minute, 60° C. for the dissociation stage; 15 seconds, 95° C.; 1 minutes, 60° C.; and 15 seconds, 95° C. […]

[6] = test system: TNF-α; assay: TNF-α secretion analysis (ELISA) in RAW 264.7 macrophages; format: cell-based, Mouse; settings: 5 μM
Experimental: (§4) All reagents were supplied from Sigma-Aldrich Co. (St. Louis, Mo.) unless otherwise noted. RAW 264.7 macrophages (ATCC TIB-71) were maintained in Dulbecco's modified Eagle's medium (Caisson, North Logan, Utah) supplemented with 100 U/mL penicillin, 100 μg/mL streptomycin, and 10% fetal bovine serum. Cells were incubated at 37° C. in a 5% CO2 humidified atmosphere and subcultured by cell scraping. For experiments, RAW cells were plated at a density of 4×10^5 cells/mL in 24-well plates. Cells were incubated overnight (18 h), washed with warm 37° C. PBS, and medium was replaced fresh DMEM medium. […] Lipopolysaccharide (1 μg/mL) was added after 2 h incubation with treatments to elicit inflammatory responses. Cells were treated in duplicate or triplicate. After an additional 6 h incubation period, media were collected and cells were washed with PBS prior to collection in TRIzol® Reagent (Ambion, Life Technologies). Samples were stored at −80° C. prior to processing.
After treatments, 1 mL of media was collected and immediately centrifuged at 13,500 g at 4° C. for 10 minutes. The supernatant was preserved at −80° C. until further processing with the BD OptEIATM Mouse TNF ELISA kit (BD Bioscience, San Jose, Calif.) following the manufacturer's protocol. […] TNF-α levels were quantified using a reference standard curve provided with the kit. Absorbance was read at 450 nm and corrected at 570 nm.

[7] = test system: IL-1β; assay: LPS-induced IL-1β gene expression in RAW 264.7 macrophages; format: cell-based; settings: 1 and 5 μM; RAW 264.7, LPS
Experimental: as §1, §2, §3

[8] = test system: TNF-α; assay: LPS-induced TNF-α gene expression in RAW 264.7 macrophages; format: cell-based; settings: any of the concentrations tested; RAW 264.7, LPS
Experimental: as §1, §2, §3

[9] = rotoevaporation 1 hour at 50° C., compared to freeze-dried samples
Text: Drying the 1:5 ratio preparations can be achieved by rotoevaporation, followed by freeze-drying or spray drying. […] Further concentration of MICs and removal of sugars from the extract can also be performed with solid phase-extraction (SPE).

[10] = test system: Nitric oxide (NO); assay: Nitric oxide production analysis (Griess) in RAW 264.7 macrophages; format: cell-based; settings: 5 μM
Experimental: as §4
After treatments, 1 mL of media was collected and assayed in duplicate following the Griess Reagent System provided by Promega (Promega Corporation; Madison, Wis.). The nitrite standard (0.1 M sodium nitrite) reference curve was built performing a serial dilution (0 to 100 μM). Absorbance was read at 540 nm.

[11] = test system: IL-6; assay: LPS-induced IL-6 gene expression in RAW 264.7 macrophages; format: cell-based; settings: 5 μM; RAW 264.7, LPS
Experimental: as §1, §2, §3

[12] = after 6 days at 37° C.; Franklin et al., 2013; cited from earlier work

CN(C)C(=N)N=C(N)N [metformin, reference compound]
IC50 ([1]; Rattus norvegicus): 800 µM

CC(=O)O[C@@H]1[C@@H](O)[C@@H](O)[C@H](Oc2ccc(CN=C=S)cc2)O[C@H]1C [MIC-4, 4-[(4′-O-acetyl-α-L-rhamnosyloxy)benzyl] isothiocyanate]
degradation of MIC in moringa extract [2]: ~20% | IC50 [3]: 2.71 µM | IC50 [1]: 7 µM | activity on glucose production relative to SF [1]: superior activity to SF | cytotoxicity (MTT cell viability) [4]: no signs of cytotoxicity | mRNA expression of iNOS [5]: significant reduction | reduction of TNF-α production [6]: 27% | mRNA expression of IL-1β [7]: significant reduction | TNF-α gene expression [8]: no reduction | loss of MIC under rotoevaporation conditions [9]: No significant loss | NO formation [10]: inhibited NO formation

C[C@@H]1O[C@@H](Oc2ccc(CN=C=S)cc2)[C@H](O)[C@H](O)[C@H]1O [MIC-1, 4-[(α-L-rhamnosyloxy)benzyl] isothiocyanate]
IL-6 gene expression [11]: decrease IL-6 gene expression significantly | degradation of MIC in moringa extract [2]: approximately 80% | IC50 [3]: 14.4 µM | activity on glucose production relative to SF [1]: superior activity to SF | cytotoxicity (MTT cell viability) [4]: no signs of cytotoxicity | mRNA expression of iNOS [5]: significant reduction | reduction of TNF-α production [6]: 20% | mRNA expression of IL-1β [7]: significant reduction | TNF-α gene expression [8]: no reduction | loss of MIC under rotoevaporation conditions [9]: No significant loss | NO formation [10]: inhibited NO formation

C[S+]([O-])CCCCN=C=S (stereo not drawn) [SF, sulforaphane]
degradation of SF [12]: 75%
